The results in this text go back to patent US20070099877A1, “N-aryl-thienopyrimidin-4-amines and analogs as activators of caspases and inducers of apoptosis and the use thereof” (Cytovia, Inc., priority 2005, published 2007).

As usually defined, the EC50 is the concentration at which the effect is half-maximal.

Common to all, as to format: cell-based
Assay [1] relates to human hepatocellular carcinoma cell line SNU398. Nature of the assay: Caspase cascade activation in SNU398 cells. Conditions: Homo sapiens, SNU-398, 48 h, read-out: Caspase activation Potency EC50 SNU398 (48 h). As to the method:
(§1) Human breast cancer cell line T-47D, human lung cancer cell line H1299, human hepatocellular carcinoma cell line SNU398, human colon carcinoma cell line HCT116 were grown according to media component mixtures designated by American Type Culture Collection+10% FCS (Invitrogen Corporation), in a 5% CO2-95% humidity incubator at 37° C. T-47D and H1299 cells were maintained at a cell density between 50 and 80% confluency at a cell density of 0.1 to 0.6×10^6 cells/mL. Cells were harvested at 600×g and resuspended at 0.65×10^6 cells/mL into appropriate media+10% FCS. An aliquot of 22.5 μL of cells was added to a well of a 384-well microtiter plate containing 2.5 μL of a 10% DMSO in RPMI-1640 media solution containing 0.16 to 100 μM of N-(2,5-dimethoxyphenyl)-2-methylthieno[3,2-d]pyrimidin-4-amine or other test compound (0.016 to 10 μM final). An aliquot of 22.5 μL of cells was added to a well of a 384-well microtiter plate containing 2.5 μL of a 10% DMSO in RPMI-1640 media solution without test compound as the control sample. The samples were mixed by agitation and then incubated at 37° C. for 24 h or 48 h in a 5% CO2-95% humidity incubator. After incubation, the samples were removed from the incubator and 25 μL of a solution containing 14 μM of N-(Ac-DEVD)-N′-ethoxycarbonyl-R110 (SEQ ID NO.:1) fluorogenic substrate (Cytovia, Inc.; WO99/18856), 20% sucrose (Sigma), 20 mM DTT (Sigma), 200 mM NaCl (Sigma), 40 mM Na PIPES buffer pH 7.2 (Sigma), and 500 μg/mL lysolecithin (Calbiochem) was added. The samples were mixed by agitation and incubated at room temperature. Using a fluorescent plate reader (Model SPECTRAfluor Plus, Tecan), an initial reading (T=0) was made approximately 1-2 min after addition of the substrate solution, employing excitation at 485 nm and emission at 530 nm, to determine the background fluorescence of the control sample. After the 3 h incubation, the samples were read for fluorescence as above (T=3 h).
(§2) The Relative Fluorescence Unit values (RFU) were used to calculate the sample readings as follows: RFU(T=3h)−Control RFU(T=O)=Net RFU(T=3h)
(§3) The activity of caspase cascade activation was determined by the ratio of the net RFU value for N-(2,5-dimethoxyphenyl)-2-methylthieno[3,2-d]pyrimidin-4-amine or other test compound to that of control samples. The EC50 (nM) was determined by a sigmoidal dose-response calculation (Prism 3.0, GraphPad Software Inc.).

Assay [2] concerns human colon carcinoma cell line HCT116. Nature of the assay: Caspase cascade activation in HCT116 cells. Conditions: Homo sapiens, HCT-116, 48 h, read-out: Caspase activation Potency EC50 HCT116 (48 h). On the procedure: as §1, §2, §3
Assay [3] concerns human breast cancer cell line T-47D. Nature of the assay: Caspase cascade activation (DEVD-R110 fluorogenic substrate) in T-47D cells. Particulars: Homo sapiens, T47D. As to the method:
as §1, §2, §3

For assay [4], the system named is human lung cancer cell line H1299. In words: Caspase cascade activation in H1299 cells. Conditions: NCI-H1299, 24 h, read-out: Caspase activation Potency EC50 H1299 (24 h). As to the method:
as §1, §2, §3

Setting [5] is: 24 h, T47D cells, 24 h, read-out: Caspase activation Potency EC50 T47D (24 h).
Setting [6] is: 48 h, T-47D cells, 48 h, read-out: Caspase activation Potency EC50 T-47D (48 h).

Where a name gives a salt, the structure may show the parent alone. Read-outs that look alike come from different tables or passages of the source.

`COc1ccc(C(C)(C)C)cc1Nc1ncnc2ccsc12` [Example 40, N-(5-tert-Butyl-2-methoxyphenyl)thieno[3,2-d]pyrimidin-4-amine]: the EC50 was 4.85 µM in assay [1]; more than 10 µM in assay [2]; 5.24 µM in assay [3] (setting [5]); 2.14 µM in assay [3] (setting [6]); 5.49 µM in assay [4].
Take `COc1ccccc1Nc1ncnc2ccsc12` [Example 4, N-(2-Methoxyphenyl)thieno[3,2-d]pyrimidin-4-amine]: the EC50 in assay [1], in assay [2], in assay [3] (setting [5]), in assay [3] (setting [6]) and in assay [4] was more than 10 µM each time.
As for `COc1ccc(OC)c(Nc2nc(C)nc3sccc23)c1` [Example 3, N-(2,5-Dimethoxyphenyl)-2-methylthieno[2,3-d]pyrimidin-4-amine], the EC50 in assay [1] was 4.66 µM; in assay [2] it was 5.55 µM; in assay [3] (setting [5]) it was 0.121 µM; in assay [3] (setting [6]) it was 0.311 µM; in assay [4] it was 5 µM.
For `COc1ccc(Nc2ncnc3ccsc23)cc1OC` [Example 14, N-(3,4-Dimethoxyphenyl)thieno[3,2-d]pyrimidin-4-amine hydrochloride], in that order: more than 10 µM, more than 10 µM, 1.81 µM, 2.02 µM and more than 10 µM.
For `COc1ccc(OC)c(Nc2ncnc3cc(Br)sc23)c1` [Example 20, 6-Bromo-N-(2,5-dimethoxyphenyl)thieno[3,2-d]pyrimidin-4-amine], in that order: 0.431 µM, 0.341 µM, 0.016 µM, 0.037 µM and 0.114 µM.
For the compound `COc1ccc(OC)c(Nc2ncnc3c(C)csc23)c1` [Example 22, N-(2,5-Dimethoxyphenyl)-7-methylthieno[3,2-d]pyrimidin-4-amine], the EC50 was more than 10 µM in assay [1]; 0.341 µM in assay [2]; 0.114 µM in assay [3] (setting [5]); 0.233 µM in assay [3] (setting [6]); 5.03 µM in assay [4].
`COc1ccc(C)cc1Nc1ncnc2ccsc12` [Example 31, N-(2-Methoxy-5-methylphenyl)thieno[3,2-d]pyrimidin-4-amine]: the EC50 in assay [1] is more than 10 µM; in assay [2], more than 10 µM; in assay [3] (setting [5]), 0.417 µM; in assay [3] (setting [6]) it was 0.519 µM; in assay [4], more than 10 µM.
Regarding `Cc1cc(Nc2ncnc3ccsc23)no1` [Example 21, N-(5-Methylisoxazol-3-yl)thieno[3,2-d]pyrimidin-4-amine hydrochloride], the EC50 in assay [1], in assay [2], in assay [3] (setting [5]), in assay [3] (setting [6]) and in assay [4] was more than 10 µM in each case.
Turning to `COc1ccc(Nc2ncnc3ccsc23)cc1` [Example 19, N-(4-Methoxyphenyl)thieno[3,2-d]pyrimidin-4-amine hydrochloride], the EC50 in assay [1], in assay [2], in assay [3] (setting [5]), in assay [3] (setting [6]) and in assay [4] was more than 10 µM each time.
As for `COc1ccc(OC)c(Nc2ncnc3cc(-c4ccccc4)sc23)c1` [Example 32, N-(2,5-Dimethoxyphenyl)-6-phenylthieno[3,2-d]pyrimidin-4-amine], the EC50 in assay [1] was 1.6 µM; in assay [2], 4.25 µM; in assay [3] (setting [5]), 2.07 µM; in assay [3] (setting [6]), 4.01 µM; in assay [4], 1.42 µM.
For the compound `COc1cccc(OC)c1Nc1ncnc2ccsc12` [Example 62, N-(2,6-Dimethoxyphenyl)thieno[3,2-d]pyrimidin-4-amine], the EC50 in assay [1], in assay [2], in assay [3] (setting [5]), in assay [3] (setting [6]) and in assay [4] was more than 10 µM throughout.
With `CCOc1ccc(OCC)c(Nc2ncnc3ccsc23)c1` [Example 36, N-(2,5-Diethoxyphenyl)thieno[3,2-d]pyrimidin-4-amine], the EC50 was 5.18 µM in assay [1]; more than 10 µM in assay [2]; more than 10 µM in assay [3] (setting [5]); 0.873 µM in assay [3] (setting [6]); 5.09 µM in assay [4].
On to `COc1ccc(Nc2ncnc3ccsc23)c(OC)c1` [Example 8, N-(2,4-Dimethoxyphenyl)thieno[3,2-d]pyrimidin-4-amine hydrochloride], for which the EC50 in assay [1], in assay [2], in assay [3] (setting [5]), in assay [3] (setting [6]) and in assay [4] was more than 10 µM in each case.
Consider `Oc1cc(O)cc(Nc2ncnc3ccsc23)c1` [Example 43, N-(3,5-Dihydroxyphenyl)thieno[3,2-d]pyrimidin-4-amine], for which the EC50 in assay [1], in assay [2], in assay [3] (setting [5]), in assay [3] (setting [6]) and in assay [4] was more than 10 µM each time.
Regarding `CCOC(=O)C=Cc1ccc(Nc2ncnc3ccsc23)cc1` [Example 33, 3-[4-(Thieno[3,2-d]pyrimidin-4-ylamino)-phenyl]acrylic acid ethyl ester], the EC50 in assay [1], in assay [2], in assay [3] (setting [5]), in assay [3] (setting [6]) and in assay [4] was more than 10 µM throughout.
Consider `COc1cc(Nc2ncnc3ccsc23)cc(OC)c1OC` [Example 10, N-(3,4,5-Trimethoxyphenyl)thieno[3,2-d]pyrimidin-4-amine hydrochloride], for which the EC50 in assay [1] was 1.05 µM; in assay [2], 5 µM; in assay [3] (setting [5]), 0.065 µM; in assay [3] (setting [6]), 0.072 µM; in assay [4] it was 5.02 µM.
For `COc1ccc(OC)c(Nc2ncnc3sc(-c4ccccc4)c(C)c23)c1` [Example 16, N-(2,5-Dimethoxyphenyl)-5-methyl-6-phenylthieno[2,3-d]pyrimidin-4-amine hydrochloride], in that order: more than 10 µM, more than 10 µM, more than 10 µM, more than 10 µM and more than 10 µM.
Regarding `COc1ccc(N)cc1Nc1ncnc2ccsc12` [Example 72, N-(5-Amino-2-methoxyphenyl)thieno[3,2-d]pyrimidin-4-amine], the EC50 in assay [1], in assay [2], in assay [3] (setting [5]), in assay [3] (setting [6]) and in assay [4] was more than 10 µM each time.
Regarding `COc1ccc(OC)c(Nc2ncnc3sc(C)c(C)c23)c1` [Example 34, N-(2,5-Dimethoxyphenyl)-5,6-dimethylthieno[2,3-d]pyrimidin-4-amine], the EC50 in assay [1], in assay [2], in assay [3] (setting [5]), in assay [3] (setting [6]) and in assay [4] was more than 10 µM throughout.
As to `COc1cccc(C)c1Nc1ncnc2ccsc12` [Example 30, N-(2-Methoxy-6-methylphenyl)thieno[3,2-d]pyrimidin-4-amine], the EC50 in assay [1] was more than 10 µM; in assay [2], more than 10 µM; in assay [3] (setting [5]) it was more than 10 µM; in assay [3] (setting [6]) it was more than 10 µM; in assay [4], 5.11 µM.
On to `c1nc(Nc2ccc3[nH]ccc3c2)c2sccc2n1` [Example 24, N-(1H-Indol-5-yl)thieno[3,2-d]pyrimidin-4-amine], for which the EC50 in assay [1], in assay [2], in assay [3] (setting [5]), in assay [3] (setting [6]) and in assay [4] was more than 10 µM in each case.
Turning to `COc1ccc(OC)c(Nc2nc(C)nc3sc(C)c(C)c23)c1` [Example 29, N-(2,5-Dimethoxy-phenyl)-2,5,6-trimethylthieno[2,3-d]pyrimidin-4-amine hydrochloride], the EC50 in assay [1], in assay [2], in assay [3] (setting [5]), in assay [3] (setting [6]) and in assay [4] was more than 10 µM throughout.
